Source: the supplement of paper PMC9663587

Each cell line was assayed with CCN1CCN(Cc2ccc(Nc3ncc(F)c(-c4cc(F)c5nc(C)n(C(C)C)c5c4)n3)nc2)CC1 (assay: increase in dead-cell fraction, 72 h; higher = more death). Conditions: 0.001 µM.
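Throughout, for GR value, 72 h: breast cancer and non-malignant breast epithelial lines, nine half-log doses, viable cells counted by Hoechst and LIVE/DEAD dye imaging versus time-zero plates and DMSO controls.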
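Throughout, for increase in dead-cell fraction, 72 h: breast cancer cell lines in 384-well plates, stained with Hoechst plus LIVE/DEAD far red dye and imaged, cells above an LDR intensity threshold counted dead, Hoechst-negative corpses included.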

Row | Cell Line | increase in dead-cell fraction
1 | T47D | -0.0007
2 | UACC812 | -0.0019
3 | UACC893 | -0.001
4 | ZR751 | 0.0013
5 | ZR7530 | 0.0055

Same assay, conditions: 0.003162 µM

Row | Cell Line | increase in dead-cell fraction
6 | T47D | 0.0004
7 | UACC812 | 0.0028
8 | UACC893 | 0.0022
9 | ZR751 | 0.0092
10 | ZR7530 | -0.0075

Same assay, conditions: 0.01 µM

Row | Cell Line | increase in dead-cell fraction
11 | T47D | 0.0119
12 | UACC812 | 0.0044
13 | UACC893 | 0.0063
14 | ZR751 | 0.0042
15 | ZR7530 | 0.0272

Same assay, conditions: 0.03162 µM

Row | Cell Line | increase in dead-cell fraction
16 | T47D | 0.0119
17 | UACC812 | 0.0186
18 | UACC893 | 0.0037
19 | ZR751 | 0.0075
20 | ZR7530 | 0.0826

Same assay, conditions: 0.1 µM

Row | Cell Line | increase in dead-cell fraction
21 | T47D | 0.0081
22 | UACC812 | 0.0202
23 | UACC893 | 0.0039
24 | ZR751 | 0.0148
25 | ZR7530 | 0.0398

Same assay, conditions: 0.3162 µM

Row | Cell Line | increase in dead-cell fraction
26 | T47D | 0.0178
27 | UACC812 | 0.0231
28 | UACC893 | 0.0024
29 | ZR751 | 0.021
30 | ZR7530 | 0.0332

Same assay, conditions: 1 µM

Row | Cell Line | increase in dead-cell fraction
31 | T47D | 0.0167
32 | UACC812 | 0.0272
33 | UACC893 | 0.0009
34 | ZR751 | 0.0189
35 | ZR7530 | 0.0706

Same assay, conditions: 3.162 µM

Row | Cell Line | increase in dead-cell fraction
36 | T47D | 0.0642
37 | UACC812 | 0.0144
38 | UACC893 | -0.0005
39 | ZR751 | 0.0151
40 | ZR7530 | 0.0448

Same assay, conditions: 10 µM

Row | Cell Line | increase in dead-cell fraction
41 | T47D | 0.104
42 | UACC812 | 0.073
43 | UACC893 | 0.0324
44 | ZR751 | 0.0172
45 | ZR7530 | 0.0361

What follows are cell lines tested with CCOc1cc2ncc(C#N)c(Nc3ccc(OCc4ccccn4)c(Cl)c3)c2cc1NC(=O)/C=C/CN(C)C [Neratinib/HKI272] (assay: GR value, 72 h; higher = faster growth (1 = untreated, <0 = killing)). Conditions: 0.0003162 µM.

Row | Cell Line | GR value [GR]
46 | T47D | 1.02
47 | UACC812 | 1.02
48 | UACC893 | 1.06
49 | ZR751 | 1.01
50 | ZR7530 | 0.699

Same assay, conditions: 0.001 µM

Row | Cell Line | GR value [GR]
51 | T47D | 1.01
52 | UACC812 | 0.785
53 | UACC893 | 0.922
54 | ZR751 | 1.03
55 | ZR7530 | 0.374

Same assay, conditions: 0.003162 µM

Row | Cell Line | GR value [GR]
56 | T47D | 0.94
57 | UACC812 | 0.449
58 | UACC893 | 0.372
59 | ZR751 | 0.972
60 | ZR7530 | 0.0338

Same assay, conditions: 0.01 µM

Row | Cell Line | GR value [GR]
61 | T47D | 0.899
62 | UACC812 | 0.258
63 | UACC893 | -0.192
64 | ZR751 | 1.02
65 | ZR7530 | -0.0663

Same assay, conditions: 0.03162 µM

Row | Cell Line | GR value [GR]
66 | T47D | 0.749
67 | UACC812 | -0.145
68 | UACC893 | -0.409
69 | ZR751 | 0.92
70 | ZR7530 | -0.199

Same assay, conditions: 0.1 µM

Row | Cell Line | GR value [GR]
71 | T47D | 0.65
72 | UACC812 | -0.384
73 | UACC893 | -0.604
74 | ZR751 | 0.864
75 | ZR7530 | -0.22

Same assay, conditions: 0.3162 µM

Row | Cell Line | GR value [GR]
76 | T47D | 0.584
77 | UACC812 | -0.493
78 | UACC893 | -0.688
79 | ZR751 | 0.741
80 | ZR7530 | -0.262

Same assay, conditions: 1 µM

Row | Cell Line | GR value [GR]
81 | T47D | 0.382
82 | UACC812 | -0.574
83 | UACC893 | -0.784
84 | ZR751 | 0.757
85 | ZR7530 | -0.411

Same assay, conditions: 3.162 µM

Row | Cell Line | GR value [GR]
86 | T47D | 0.215
87 | UACC812 | -0.747
88 | UACC893 | -0.908
89 | ZR751 | 0.733
90 | ZR7530 | -0.497

These cell lines were tested with CN(C)C/C=C/C(=O)Nc1ccc(C(=O)Nc2cccc(Nc3ncc(Cl)c(-c4c[nH]c5ccccc45)n3)c2)cc1 [THZ1] in the same assay as above. Conditions: 0.0001 µM.

Row | Cell Line | GR value [GR]
91 | T47D | 0.967
92 | UACC812 | 1.23
93 | UACC893 | 0.991
94 | ZR751 | 1.03
95 | ZR7530 | 0.924

Same assay, conditions: 0.0003162 µM

Row | Cell Line | GR value [GR]
96 | T47D | 1.08
97 | UACC812 | 1.05
98 | UACC893 | 1.12
99 | ZR751 | 1.02
100 | ZR7530 | 1.19

Same assay, conditions: 0.001 µM

Row | Cell Line | GR value [GR]
101 | T47D | 0.922
102 | UACC812 | 1.18
103 | UACC893 | 1.07
104 | ZR751 | 0.935
105 | ZR7530 | 1.07

Same assay, conditions: 0.003162 µM

Row | Cell Line | GR value [GR]
106 | T47D | 1.02
107 | UACC812 | 0.811
108 | UACC893 | 0.882
109 | ZR751 | 0.967
110 | ZR7530 | 0.851

Same assay, conditions: 0.01 µM

Row | Cell Line | GR value [GR]
111 | T47D | 0.841
112 | UACC812 | 1.1
113 | UACC893 | 0.669
114 | ZR751 | 0.949
115 | ZR7530 | 0.985

Same assay, conditions: 0.03162 µM

Row | Cell Line | GR value [GR]
116 | T47D | 0.474
117 | UACC812 | 0.842
118 | UACC893 | 0.149
119 | ZR751 | 0.915
120 | ZR7530 | 0.289

Same assay, conditions: 0.1 µM

Row | Cell Line | GR value [GR]
121 | T47D | -0.116
122 | UACC812 | 1.1
123 | UACC893 | -0.241
124 | ZR751 | 0.816
125 | ZR7530 | -0.492

Same assay, conditions: 0.3162 µM

Row | Cell Line | GR value [GR]
126 | T47D | -0.142
127 | UACC812 | 1.01
128 | UACC893 | -0.397
129 | ZR751 | 0.748
130 | ZR7530 | -0.524

Same assay, conditions: 1 µM

Row | Cell Line | GR value [GR]
131 | T47D | -0.269
132 | UACC812 | -0.293
133 | UACC893 | -0.517
134 | ZR751 | -0.165
135 | ZR7530 | -0.638
